“And” between values parts separate entries of the source, which are not always exact repeats. Equal values may be shown once. Toxic doses and inconclusive results are not listed. Rule as the data show it: active = T/C of 150% or more; inactive = T/C below 125%.
System: L1210 leukemia ip in BDF1 mice, survival T/C
Experiment: NCI In Vivo Anticancer Drug Screen. Data for tumor model L1210 Leukemia (intraperitoneal) in B6D2F1 (BDF1) mice
Settings: endpoint: mean survival time, higher = longer survival
In short: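 Read-out is survival time, reported as the treated-group measurement over the vehicle-control measurement.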

[1] = dose: 25.0 mg/kg/injection, schedule: Q01DX009 (ip), vehicle: Klucel (hydroxypropylcellulose) (HPC)
[2] = dose: 100.0 mg/kg/injection, schedule: Q01DX009 (ip), vehicle: Klucel (hydroxypropylcellulose) (HPC)
[3] = dose: 200.0 mg/kg/injection, schedule: Q01DX009 (ip), vehicle: Klucel (hydroxypropylcellulose) (HPC)
[4] = dose: 100.0 mg/kg/injection, schedule: Q01DX001 (ip), vehicle: carboxymethylcellulose (CMC)
[5] = dose: 200.0 mg/kg/injection, schedule: Q01DX001 (ip), vehicle: carboxymethylcellulose (CMC)
[6] = dose: 100.0 mg/kg/injection, schedule: Q01DX001 (ip), vehicle: saline
[7] = dose: 200.0 mg/kg/injection, schedule: Q01DX001 (ip), vehicle: saline
[8] = dose: 400.0 mg/kg/injection, schedule: Q01DX001 (ip), vehicle: saline
[9] = dose: 100.0 mg/kg/injection, schedule: Q04DX003 (ip), vehicle: saline with Tween-80
[10] = dose: 200.0 mg/kg/injection, schedule: Q04DX003 (ip), vehicle: saline with Tween-80
[11] = dose: 400.0 mg/kg/injection, schedule: Q04DX003 (ip), vehicle: saline with Tween-80
[12] = dose: 100.0 mg/kg/injection, schedule: Q04DX002 (ip), vehicle: Klucel (hydroxypropylcellulose) (HPC)
[13] = dose: 200.0 mg/kg/injection, schedule: Q04DX002 (ip), vehicle: Klucel (hydroxypropylcellulose) (HPC)
[14] = dose: 100.0 mg/kg/injection, schedule: Q01DX009 (ip), vehicle: saline
[15] = dose: 200.0 mg/kg/injection, schedule: Q01DX009 (ip), vehicle: saline
[16] = dose: 400.0 mg/kg/injection, schedule: Q01DX009 (ip), vehicle: Klucel (hydroxypropylcellulose) (HPC)
[17] = dose: 50.0 mg/kg/injection, schedule: Q01DX009 (ip), vehicle: saline with Tween-80

Measured: T/C

COc1ccc(OC(=O)Nc2cc([N+](=O)[O-])ccc2OC)cc1
inactive: [1] 89 % of control | dose: 50.0 mg/kg/injection, schedule: Q01DX009 (ip), vehicle: Klucel (hydroxypropylcellulose) (HPC) 96 % of control | [2] 88 % of control | [3] 88 % of control

CC1(C)CN1c1nc(N2CC2(C)C)nc(N2CC2(C)C)n1
inactive: dose: 44.0 mg/kg/injection, schedule: Q01DX001 (ip), vehicle: carboxymethylcellulose (CMC) 106 % of control and 108 % of control | dose: 66.0 mg/kg/injection, schedule: Q01DX001 (ip), vehicle: carboxymethylcellulose (CMC) 106 % of control and 108 % of control | [4] 113 % of control and 120 % of control | dose: 150.0 mg/kg/injection, schedule: Q01DX001 (ip), vehicle: carboxymethylcellulose (CMC) 116 % of control and 118 % of control | [5] 118 % of control

CC(N)CC(N)CC(=O)O (configuration not stated)
inactive: [6] 96 % of control and 98 % of control | [7] 98 % of control and 104 % of control | [8] 91 % of control and 102 % of control

Cc1cc2ncn(C(=O)Nc3ccccc3)c2cc1C
inactive: [9] 92 % of control | [10] 87 % of control | [11] 90 % of control

CCOC(=O)CC(C)=O.CCOC(=O)CC(C)=O.CCOC(=O)CC(C)=O.[Al]
inactive: dose: 12.5 mg/kg/injection, schedule: Q01DX005 (ip), vehicle: Klucel (hydroxypropylcellulose) (HPC) 96 % of control | dose: 12.5 mg/kg/injection, schedule: Q01DX009 (ip), vehicle: Klucel (hydroxypropylcellulose) (HPC) 104 % of control | dose: 25.0 mg/kg/injection, schedule: Q01DX005 (ip), vehicle: Klucel (hydroxypropylcellulose) (HPC) 100 % of control | [1] 107 % of control | dose: 50.0 mg/kg/injection, schedule: Q01DX005 (ip), vehicle: Klucel (hydroxypropylcellulose) (HPC) 93 % of control | [12] 100 % of control | [13] 93 % of control | dose: 400.0 mg/kg/injection, schedule: Q04DX002 (ip), vehicle: Klucel (hydroxypropylcellulose) (HPC) 107 % of control

COC(=O)C1OC1C(=O)OC (configuration not stated)
inactive: [2] 91 % of control | [14] 101 % of control | [3] 96 % of control | [15] 100 % of control | [16] 102 % of control | dose: 400.0 mg/kg/injection, schedule: Q01DX009 (ip), vehicle: saline 92 % of control

CC1(C)C/C(=C\c2ccc(Cl)cc2)C(=O)c2ccccc21
inactive: [2] 97 % of control | dose: 100.0 mg/kg/injection, schedule: Q04DX003 (ip), vehicle: Klucel (hydroxypropylcellulose) (HPC) 95 % of control | [3] 93 % of control | dose: 200.0 mg/kg/injection, schedule: Q04DX003 (ip), vehicle: Klucel (hydroxypropylcellulose) (HPC) 92 % of control | [16] 97 % of control | dose: 400.0 mg/kg/injection, schedule: Q04DX003 (ip), vehicle: Klucel (hydroxypropylcellulose) (HPC) 92 % of control

CCC(C)CNCCO (configuration not stated)
inactive: dose: 50.0 mg/kg/injection, schedule: Q01DX009 (ip), vehicle: saline 92 % of control | [14] 100 % of control | [15] 103 % of control

Clc1ccccc1/C=N\N=C(N/N=C\c1ccccc1Cl)N/N=C/c1ccccc1Cl
inactive: dose: 15.0 mg/kg/injection, schedule: Q01DX Z (ip), vehicle: carboxymethylcellulose (CMC) 103 % of control | dose: 30.0 mg/kg/injection, schedule: Q01DX Z (ip), vehicle: carboxymethylcellulose (CMC) 97 % of control | dose: 60.0 mg/kg/injection, schedule: Q01DX Z (ip), vehicle: carboxymethylcellulose (CMC) 98 % of control | dose: 120.0 mg/kg/injection, schedule: Q01DX Z (ip), vehicle: carboxymethylcellulose (CMC) 97 % of control | dose: 150.0 mg/kg/injection, schedule: Q01DX Z (oral), vehicle: carboxymethylcellulose (CMC) 101 % of control | dose: 300.0 mg/kg/injection, schedule: Q01DX Z (oral), vehicle: carboxymethylcellulose (CMC) 101 % of control | dose: 600.0 mg/kg/injection, schedule: Q01DX Z (oral), vehicle: carboxymethylcellulose (CMC) 101 % of control | dose: 1200.0 mg/kg/injection, schedule: Q01DX Z (oral), vehicle: carboxymethylcellulose (CMC) 100 % of control

CCOC(=O)C(C)(C)CN(CC(C)(C)C(=O)OCC)C(C)(C)C
inactive: dose: 100.0 mg/kg/injection, schedule: Q01DX001 (ip), vehicle: saline sonified 87 % of control | dose: 200.0 mg/kg/injection, schedule: Q01DX001 (ip), vehicle: saline sonified 93 % of control | dose: 400.0 mg/kg/injection, schedule: Q01DX001 (ip), vehicle: saline sonified 91 % of control

CCOc1ccc2nc(C)cc(C)c2c1
inactive: [12] 98 % of control | [13] 112 % of control

CN(C)c1cc2c(cc1[N+](=O)[O-])-c1ccccc1C2=O
inactive: [9] 100 % of control | [10] 100 % of control | [11] 100 % of control

CCCCCCCCCCCCSC1=NCCN1
inactive: dose: 25.0 mg/kg/injection, schedule: Q04DX003 (ip), vehicle: Klucel (hydroxypropylcellulose) (HPC) 100 % of control | dose: 45.0 mg/kg/injection, schedule: Q04DX003 (ip), vehicle: Klucel (hydroxypropylcellulose) (HPC) 95 % of control | dose: 87.5 mg/kg/injection, schedule: Q04DX003 (ip), vehicle: Klucel (hydroxypropylcellulose) (HPC) 100 % of control | dose: 88.0 mg/kg/injection, schedule: Q04DX003 (ip), vehicle: Klucel (hydroxypropylcellulose) (HPC) 103 % of control

COC(COS(=O)(=O)c1ccc(Br)cc1)(c1ccccc1)c1ccccc1
inactive: [17] 87 % of control

CN(C(=O)Cc1ccccc1)c1ccccc1[N+](=O)[O-]
inactive: dose: 50.0 mg/kg/injection, schedule: Q01DX001 (ip), vehicle: saline 98 % of control | [6] 104 % of control | [7] 95 % of control | [8] 101 % of control

CCCCCCCCCCCCNCCCCCCCCCCCC
inactive: dose: 3.12 mg/kg/injection, schedule: Q01DX009 (ip), vehicle: saline 102 % of control | dose: 6.25 mg/kg/injection, schedule: Q01DX009 (ip), vehicle: saline 97 % of control | dose: 6.25 mg/kg/injection, schedule: Q04DX003 (ip), vehicle: acetone 100 % of control | dose: 12.5 mg/kg/injection, schedule: Q01DX001 (ip), vehicle: saline 93 % of control | dose: 12.5 mg/kg/injection, schedule: Q01DX009 (ip), vehicle: saline 102 % of control | dose: 12.5 mg/kg/injection, schedule: Q04DX003 (ip), vehicle: acetone 96 % of control | dose: 25.0 mg/kg/injection, schedule: Q01DX001 (ip), vehicle: saline 93 % of control | dose: 100.0 mg/kg/injection, schedule: Q01DX009 (ip), vehicle: other 105 % of control | dose: 200.0 mg/kg/injection, schedule: Q01DX009 (ip), vehicle: other 105 % of control | dose: 400.0 mg/kg/injection, schedule: Q01DX009 (ip), vehicle: other 93 % of control

S=c1[nH]nc2n1NC(c1ccoc1)=NN2
inactive: dose: 25.0 mg/kg/injection, schedule: Q01DX009 (ip), vehicle: saline with Tween-80 96 % of control | [17] 95 % of control | dose: 100.0 mg/kg/injection, schedule: Q01DX009 (ip), vehicle: saline with Tween-80 97 % of control

CCCCC(=O)NCCc1ccc2c([nH]c3ccccc32)c1C
inactive: dose: 100.0 mg/kg/injection, schedule: Q04DX003 (ip), vehicle: saline 96 % of control | dose: 200.0 mg/kg/injection, schedule: Q04DX003 (ip), vehicle: saline 104 % of control | dose: 400.0 mg/kg/injection, schedule: Q04DX003 (ip), vehicle: saline 96 % of control

CN1CNC(C=O)(CCc2ccc(Cl)cc2)C1 (configuration not stated)
inactive: dose: 200.0 mg/kg/injection, schedule: Q01DX001 (ip), vehicle: other 87 % of control | dose: 400.0 mg/kg/injection, schedule: Q01DX001 (ip), vehicle: other 98 % of control

COc1ccccc1NC(=O)NCCO
inactive: [4] 103 % of control | [5] 95 % of control | dose: 400.0 mg/kg/injection, schedule: Q01DX001 (ip), vehicle: carboxymethylcellulose (CMC) 103 % of control

OC(c1ccc(Cl)cc1)(c1ccc(Cl)cc1)C(F)(Cl)Cl
inactive: dose: 26.6 mg/kg/injection, schedule: Q01DX Z (ip), vehicle: methylcellulose (MC) 87 % of control | dose: 40.0 mg/kg/injection, schedule: Q01DX Z (ip), vehicle: methylcellulose (MC) 107 % of control | dose: 60.0 mg/kg/injection, schedule: Q01DX Z (ip), vehicle: methylcellulose (MC) 96 % of control
